Results: patent publication US5202350A, “Furanone anti-inflammatory agents” (Bristol-Myers Squibb Co., priority 1991, dated 1993)

Assays:
[1] = tested on: ears of CD-1 mice; assay: Inhibition of Phorbol-Ester-Induced inflammation (TPA ear edema); assay type: in vivo; details: topical, six hours
Text: The method used is similar to that reported by Young, et al. [Young J. M., Wagner B. M., Spires D. A., J Invest Dermatol, 80:48-52(1983); DeYound L. M., Kheifets J. B., Ballaron S. J., Young J. M., Agents Actions 26:335-341 (1989)]. An inflammatory reaction is induced by the topical application of 0.01% (w/v) […] (TPA) to the ears of CD-1 mice. An acute inflammatory reaction is produced, resulting in ear edema. TPA, with and without various concentrations of test compound, was applied to the inner and outer aspects of the ear surface (10 μl/surface). After six hours, the mice were sacrificed and the ears removed. Ear tissue punches (5/16") were taken from each ear and weighed to measure edema.
The anti-inflammatory activity of the test compounds was determined by comparing the edema produced by TPA without test compound to that produced in its presence.
Percent inhibition values were determined by the equation: [formula]

[2] = biological target: T1, human platelet phospholipase A2 (Homo sapiens, UniProt P14555); assay: PLA2 Inhibition Assay (14C-oleate labeled E. coli membrane substrate); assay type: biochemical; details: human platelet PLA2, pH 7, 37° C., 7 min preincubation, 30 min incubation
T1 construct: The enzyme was isolated from human platelets; from tissue; host or cells: human platelets
T1 sequence (P14555 21-144): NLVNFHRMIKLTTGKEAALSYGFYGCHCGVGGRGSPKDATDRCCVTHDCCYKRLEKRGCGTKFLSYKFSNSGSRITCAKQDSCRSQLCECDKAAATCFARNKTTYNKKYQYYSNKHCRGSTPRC
Procedure: The utility of the compounds of the instant invention is shown by their inhibitory activity toward human platelet phospholipase A2 and their in vivo anti-inflammatory activity. The activity against human platelet phospholipase A2 was determined as described below:
The method used is similar to that reported by Franson, et al. [Jesse R. L. and Franson R. C., Biochim Biophys Acta 575:467-470 (1979), Franson R. C., Patriarca P., and Elsback P., J Lipid Res 15:380-388 (1974)]. The enzyme was isolated from human platelets. The substrate used consisted of ^14 C-oleate labeled Escherichia coli membranes. E. coli cells were grown in the presence of ^14 C-oleic acid and then autoclaved to prepare the membranes.
Various concentrations of test compounds are preincubated with PLA2 (3.6 μg/ml in a buffer consisting of 25 mM HEPES (pH 7), 150 mM NaCl, 5.0 mM CaCl2, and 10% DMSO (v/v, test compound solvent) at 37° C. for 7 minutes. The E. coli membrane substrate is then added (0.1 mM phospholipid, 0.005 μCi ^14 C) and the reaction is then incubated at 37° C. for 30 minutes. The reaction is terminated by the addition of 1.9 ml tetrahydrofuran (THF), and the entire solution is applied to a solid-phase extraction column (aminopropyl resin, Analytichem). The column is rinsed with an additional 1 ml of THF. The free fatty acid product of the reaction is then eluted from the column with 1 ml of 2% acetic acid (v/v) in THF and collected in a scintillation vial. The amount of free fatty acid product is determined by liquid scintillation counting. The amount of inhibition produced by the test compound is calculated by comparing the counts obtained in the presence of the compound to those obtained in its absence (solvent only). Background counts were determined by performing incubations in the absence of enzyme.
Percent inhibition is determined by the equation: [formula]
IC50 values (the concentration of inhibitor required to produce 50% inhibition) were determined by linear regression analysis of a plot of % inhibition versus log test compound concentration.

Compound: CCCCCCCCCCCCCCCCC1CC(O)OC1=O (centres unmarked) [Example 13, 3-n-Hexadecyl-5-Hydroxy-3,4-Dihydro-Furan-2-One]
- % Inhibition of Ear Edema ([1]; dose 2.5% (w/v)): 6.8%
- % Inhibition of Ear Edema ([1]; dose 5.0% (w/v)): 24.6%
- % Inhibition of Ear Edema ([1]; dose 7.5% (w/v)): 33.5%
- % Inhibition of Ear Edema ([1]; dose 10% (w/v)): 45%
- IC50 [2]: 59 µM

Compound: CCCCCCCCCCCCC1CC(O)OC1=O (centres unmarked) [Example 7, 3-n-Dodecyl-5-Hydroxy-3,4-Dihydro-Furan-2-One]
- IC50 [2]: 18 µM

Compound: CCCCCC1CC(O)OC1=O (centres unmarked) [Example 11, 3-n-Amyl-5-Hydroxy-3,4-Dihyro-Furan-2-One]
- IC50 [2]: > 500 µM

Compound: O=C1OC(O)CC1CCCCCCCc1ccccc1 (centres unmarked) [Example 9]
- IC50 [2]: 379 µM

Compound: CCCCCCCCCCCC1CC(O)OC1=O (centres unmarked) [Example 5, 3-n-Undecyl-5-Hydroxy-3,4-Dihydro-Furan-2-One]
- % Inhibition of Ear Edema ([1]; dose 2.6% (w/v)): 34.6%
- IC50 [2]: 17 µM

Compound: CCCCCCCCCCC1CC(O)OC1=O (centres unmarked) [Example 3, 3-n-Decyl-5-Hydroxy-3,4-Dihydro-Furan-2-One]
- IC50 [2]: 525 µM
